Here are results for 24 compounds from ChEMBL document CHEMBL1147490, “N-4-methansulfonamidobenzyl-N'-2-substituted-4-tert-butyl-benzyl thioureas as potent vanilloid receptor antagonistic ligands” (Bioorg Med Chem Lett, 2004).

The first assay concerns the target T1, Vanilloid receptor (Rattus norvegicus, UniProt Q9ERZ8+Q9WUD2+O35433). Nature of the assay: In vitro induction of 45 [Ca2+] influx in rat DRG neurons (ineffective at 30 uM, partial activity). The format is functional.
For `CC(C)(C)c1ccc(CNC(=S)NCc2ccc(NS(C)(=O)=O)c(F)c2)cc1`, the EC50 result was “Partially active”.

`CC(C)(C)COc1cc(C(C)(C)C)ccc1C/N=C(\S)NCc1ccc(NS(C)(=O)=O)c(F)c1`: the EC50 entry is on record as “Partially active”.

Regarding `CC(C)(C)C(=O)OCc1cc(C(C)(C)C)ccc1C/N=C(\S)NCc1ccc(NS(C)(=O)=O)c(F)c1`, the EC50 entry was “Partially active”.

Regarding `CCCCOc1cc(C(C)(C)C)ccc1C/N=C(\S)NCc1ccc(NS(C)(=O)=O)c(F)c1`, the EC50 entry was “Partially active”.

In another assay the target is T1, Vanilloid receptor. Nature of the assay: In vitro inhibitory concentration was determined against [45Ca2+]- influx in rat DRG neurons. It is filed as functional.
`CC(C)(C)c1ccc(C/N=C(\S)NCc2ccc(NS(C)(=O)=O)cc2)c(OCc2ccccc2)c1` displayed an IC50 of 770 nM.

`CCCCCCOc1cc(C(C)(C)C)ccc1C/N=C(\S)NCc1ccc(NS(C)(=O)=O)cc1` had an IC50 of 150 nM.

`COCCOc1cc(C(C)(C)C)ccc1C/N=C(\S)NCc1ccc(NS(C)(=O)=O)cc1`: the half-inhibitory concentration (IC50) amounted to 60 nM.

For the compound `NC(=O)N1CCN(c2ccccn2)CC1`, the half-inhibitory concentration (IC50) turned out to be 30 nM.

As to `CCCCCOc1cc(C(C)(C)C)ccc1C/N=C(\S)NCc1ccc(NS(C)(=O)=O)cc1`, the half-maximal inhibitory concentration (IC50) was 70 nM.

Regarding `CC(C)(C)COc1cc(C(C)(C)C)ccc1C/N=C(\S)NCc1ccc(NS(C)(=O)=O)c(F)c1`, the half-maximal inhibitory concentration (IC50) is 66 nM.

The compound `CC(C)(C)C(=O)Oc1cc(C(C)(C)C)ccc1C/N=C(\S)NCc1ccc(NS(C)(=O)=O)cc1` registered an IC50 of 220 nM.

For `CCCNCC(=O)N(CCC)CC(=O)N(CCC)CC(=O)O`, the half-inhibitory concentration (IC50) was determined as 2000 nM.

Compound `CCCCOc1cc(C(C)(C)C)ccc1C/N=C(\S)NCc1ccc(NS(C)(=O)=O)cc1` registered an IC50 of 60 nM.

For the compound `CCCOc1cc(C(C)(C)C)ccc1C/N=C(\S)NCc1ccc(NS(C)(=O)=O)cc1`, the half-inhibitory concentration (IC50) was 250 nM.

In the case of `COc1cc(CC/N=C(\S)NCCc2ccccc2)ccc1O`, the IC50 was found to be 320 nM.

`Cc1cc(CN/C(S)=N/Cc2ccc(NS(C)(=O)=O)cc2)c(COC(=O)C(C)(C)C)cc1C` gave an IC50 of 70 nM.

For `CC(C)(C)C(=O)OCc1cc(C(C)(C)C)ccc1C/N=C(\S)NCc1ccc(NS(C)(=O)=O)c(F)c1`, the concentration for half-maximal inhibition (IC50) is reported as 15 nM.

On to `CCOc1cc(C(C)(C)C)ccc1C/N=C(\S)NCc1ccc(NS(C)(=O)=O)cc1`, for which the IC50 is 1100 nM.

Take `CC(C)(C)C(=O)OCc1cc(C(C)(C)C)ccc1C/N=C(\S)NCc1ccc(NS(C)(=O)=O)cc1`: the IC50 was determined as 70 nM.

`CC(=O)OCc1cc(C(C)(C)C)ccc1C/N=C(\S)NCc1ccc(NS(C)(=O)=O)cc1` returned a concentration for half-maximal inhibition (IC50) of 580 nM.

Turning to `CC(C)Oc1cc(C(C)(C)C)ccc1C/N=C(\S)NCc1ccc(NS(C)(=O)=O)cc1`, the half-inhibitory concentration (IC50) turned out to be 350 nM.

The compound `COc1cc(C(C)(C)C)ccc1C/N=C(\S)NCc1ccc(NS(C)(=O)=O)cc1` returned an IC50 of 2400 nM.

`CCCCOc1cc(C(C)(C)C)ccc1C/N=C(\S)NCc1ccc(NS(C)(=O)=O)c(F)c1` displayed a 50% inhibitory concentration (IC50) of 20 nM.

In the case of `COCOc1cc(C(C)(C)C)ccc1C/N=C(\S)NCc1ccc(NS(C)(=O)=O)cc1`, the half-inhibitory concentration (IC50) turned out to be 500 nM.

In turn, `N/C(S)=N/N1CCCC1` registered an IC50 of 3000 nM.

Take `CC(C)(C)COc1cc(C(C)(C)C)ccc1C/N=C(\S)NCc1ccc(NS(C)(=O)=O)cc1`: the IC50 was determined as 60 nM.

Consider `C=C(C)[C@]12C[C@@H](C)[C@@]34O[C@](Cc5ccccc5)(O[C@@H]1[C@@H]3C=C(COC(=O)Cc1cc(I)c(O)c(OC)c1)C[C@]1(O)C(=O)C(C)=C[C@@H]41)O2` [IODORESINIFERATOXIN], for which the 50% inhibitory concentration (IC50) came out at 4000 nM.

By IC50 is commonly meant the concentration that inhibits the measured activity by half.
